This note sets out measurements from article PMC10458893, “Design of Protegrin-1 Analogs with Improved Antibacterial Selectivity” (Pharmaceutics, 2023).

For series [1], the system named is E. coli ATCC 25922. Put plainly: Systemic septicemia infection mice model. Conditions: BALB/c mice n = 5, i.p. E. coli ATCC 25922 10^6 CFU with mucin, 5 mg/kg i.p. at 1 h and 4 h, 7 days. It counts as in vivo. As for the experimental part: Experiments were performed with male and female 8–10-week-old BALB/c mice (22–24 g, “Andreevka” laboratory animal nursery FMBA, Russia) according to the previously described method. Briefly, a total of 3 groups of 5 mice per group were infected by intraperitoneal (i.p.) injection of the bacterial inoculum (E. coli ATCC 25922), 10^6 colony forming units (CFU) per animal, in the presence of mucin. All the animals received two i.p. injections: 1 h and 4 h after bacterial challenge. The first group received ciprofloxacin (Sigma-Aldrich, St. Louis, MO, USA) as a positive control at a dose of 10 mg/kg per injection. The second group received peptide [V16R] at a dose of 5 mg/kg per injection. The third group received PBS as a vehicle control. Animals were monitored for 7 days post-infection. All the surviving mice were euthanized by CO2 asphyxiation. The spleen was aseptically removed, homogenized, serially diluted, and plated on Endo agar to detect CFU in a sample.

In another series the test system is S. aureus ATCC 29213. It is filed as cell-based, Staphylococcus aureus. Conditions: ATCC 29213, 24 h. In a few lines: (§1)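 Peptides were tested by two-fold serial broth dilution in microplates and incubated 24 h. Resazurin (0.1 mg/mL) was then added for a further 2 h. MIC was the lowest peptide concentration giving no resazurin color change; values are medians of at least three independent experiments in triplicate.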

For a further series, the system named is S. aureus 209P. It counts as cell-based, Staphylococcus aureus. The following applies: 24 h. An outline of the steps:
as §1

In series [2] the test system is human keratinocyte cell line (HaCaT). Briefly: Cytotoxicity MTT assay. The following applies: 18 h, 128. It counts as cell-based. An outline of the steps:
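Colorimetric MTT dye-reduction assay on human HaCaT keratinocytes, with peptide-free wells as 100% survival. Each peptide tested in two separate experiments.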
A general note: Tetrazolium assays rely on reduction of a dye to a coloured formazan, in cell work by metabolically active cells.

For another series, the system named is P. aeruginosa PAO1. It counts as cell-based, Pseudomonas aeruginosa. The following applies: PAO1, 24 h. In a few lines:
as §1

For a further series, the system named is P. aeruginosa ATCC 27853. It is filed as cell-based, Pseudomonas aeruginosa. The following applies: ATCC 27853, 24 h. An outline of the steps:
as §1

The test system of series [3] is freshly isolated human erythrocytes (hRBCs). Briefly: Hemolysis assay (hemoglobin release). It is filed as cell-based. The following applies: red cells of human, 64. The text has this:
To assess the hemolytic activity of the compounds, freshly isolated human erythrocytes (hRBCs) were used according to the methodology described in a previous study. Melittin was used as a positive peptide control that induces significant hemolysis. Isotonic phosphate buffer (PBS) served as a negative control, while 0.1% Triton X-100 solution was used as a control for complete hemolysis.

Another series deals with E. coli BW 25113. It counts as cell-based. The following applies: two-fold serial dilutions, 24 h incubation, resazurin read-out; median of at least three independent experiments in triplicate. An outline of the steps: as §1
Background: Resazurin is reduced to fluorescent resorufin, in cell work by metabolically active cells.

Another series deals with all the test strains. It counts as cell-based. The following applies: geometric mean over the 10 test strains. In a few lines:
as §1

Series [4] concerns E. coli ATCC 25922. It is filed as cell-based. The following applies: ATCC 25922, 24 h. In a few lines:
as §1

Series [5] concerns Acinetobacter baumannii (strain XDR CI 2675). It is filed as cell-based. The following applies: strain XDR CI 2675, 24 h. In a few lines:
as §1

A further series deals with E. coli ML35p. It is filed as cell-based. The following applies: ML35p, 24 h. In a few lines: as §1
The subject of series [6] is K. pneumoniae ATCC 700603. It is filed as cell-based, Klebsiella pneumoniae. The following applies: ATCC 700603, 24 h. In a few lines: as §1
Another series relates to M. luteus B-1314. It counts as cell-based, Micrococcus luteus. The following applies: B-1314, 24 h. An outline of the steps: as §1

In brackets after ≈: the same amount, converted by molar mass. Positions of bridges follow the written chain, without caps; N, C: chain ends. Residues, ends and D or L forms follow the SMILES beside them.

For the compound `CC(C)C[C@H](NC(=O)[C@H](CCCNC(=N)N)NC(=O)CNC(=O)CNC(=O)[C@@H](N)CCCNC(=N)N)C(=O)N[C@H]1CSSC[C@@H](C(=O)N[C@@H](CCCNC(=N)N)C(=O)NCC(=O)N[C@@H](CCCNC(=N)N)C(=O)O)NC(=O)[C@H](C(C)C)NC(=O)[C@@H]2CSSC[C@H](NC(=O)[C@H](Cc3ccc(O)cc3)NC1=O)C(=O)N[C@@H](CCCNC(=N)N)C(=O)N[C@@H](CCCNC(=N)N)C(=O)N[C@@H](CCCNC(=N)N)C(=O)N[C@@H](Cc1ccccc1)C(=O)N2` [[V16R]] (H-RGGRLCYCRRRFCVCRGR-OH; disulfide 6-15, 8-13), the Deaths of mice entry in the series on E. coli ATCC 25922 [1] is given as “two out of five”. Also, the “Therapeutic efficacy (survival)” value with E. coli ATCC 25922 [1] (chloride form) is on record as 60%. In the series on S. aureus ATCC 29213, the “MIC, S. aureus ATCC 29213” value came to 4 µM (≈ 8.85 µg/mL). In addition, the “MIC, S. aureus 209P” value against S. aureus 209P came to 4 µM (≈ 8.85 µg/mL). In series [2], the “Cell Viability, % (128 μM)” value is recorded as 80.0 (± 8.62) %. Also, in the series with P. aeruginosa PAO1, the “MIC, P. aeruginosa PAO1” value was found to be 1 µM (≈ 2.21 µg/mL). The “MIC, P. aeruginosa ATCC 27853” value in the series on P. aeruginosa ATCC 27853 worked out at 0.5 µM (≈ 1.11 µg/mL). In addition, in series [3], the “Hemolytic activity, % (64 μM)” value is 2.8 (±0.2) %. Further, in the series on E. coli BW 25113, the “MIC, E. coli BW 25113” value was 0.25 µM (≈ 0.553 µg/mL). In addition, in the series with all the test strains, the “MIC (GM), geometric mean of the peptide's MICs against all the test strains” value was determined as 0.8 µM. In the series with E. coli ATCC 25922 [4], the “MIC, E. coli ATCC 25922” value worked out at 0.5 µM (≈ 1.11 µg/mL). The “MIC, A. baumannii” value in series [5] came out at 0.125 µM (≈ 0.277 µg/mL). The “MIC, E. coli ML35p” value against E. coli ML35p was determined as 0.25 µM (≈ 0.553 µg/mL). For the same compound, the “MIC, K. pneumoniae ATCC 700603” value in [6] was 4 µM (≈ 8.85 µg/mL). For the same compound, the “MIC, M. luteus B-1314” value against M. luteus B-1314 turned out to be 1 µM (≈ 2.21 µg/mL).
